Measured values taken from patent publication US5208246A, “Tetralones with pharmacological activity” (J. Uriach & Cia., priority 1991, dated 1993).

Experiments:
[1] = tested on: hypertense rats; assay: Test 2: Lowering of the arterial pressure in concious hypertense rats; type: in vivo, rat; settings: 1 mg/Kg p.o.; spontaneously hypertense rats, conscious; 3 animals; arterial pressure every 60 minutes during 4 hours
Description: Test 2: Lowering of the arterial pressure in concious hypertense rats.
Spontaneously hypertense rats (between 200 and 250 g of body weight) of more than 8 weeks of age have been used. Diastolic and systolic arterial pressure of the rat was measured at the caudal artery using a special sphygnomanometer (Letica 5007 and 5007/4) attached to the animal's tail. To ensure rapid and reliable data, animals were placed in a heating plate at 37° C., with the aim to produce a vasodilation that ensured a better fixation of the rat tail to the transfer chamber. During the experiment, rats are conscious and fixed to a clamp. The tested products were administered orally. Arterial pressure was measured every 60 minutes during 4 hours and 10 minutes before the administration of the tested compound. The decrease of the arterial pressure was calculated for each compound at a dose of 1 mg/Kg, using 3 animals.

[2] = tested on: trachea isolated from guinea pig; assay: Test 3: Direct relaxation of the trachea isolated from guinea pig; settings: Cavia porcellus; 50% of the maximum relaxation; maximum = relaxation by isoproterenol at 1×10^-6 M; cumulative addition; basal tension 0.5 g; 37° C.
Description: Test 3-Direct relaxation of the trachea isolated from guinea pig.
This test was performed according to the experimental model described by Emmerson, J. and Mackay, D. (J. Pharm. Pharmacol., 1979, 31, 798). Tracheas were extracted from male guinea pigs of 400 g of body weight, which had been stunned by a blow in the head. Then, tracheas were cut in zigzag and placed into an isolated organ bath (Letica) containing Krebs-Henseleit solution at 37° C. and were bubbled with carbogen (95% O2 and 5% CO2). The relaxation of the trachea was measured using an isometric force transducer. The basal tension was 0.5 g.

[3] = tested on: portal vein isolated from rat; assay: Test 1: Inhibition of the contraction induced by noradrenaline in portal vein isolated from rat; settings: 0.5 h
Description: Test 1: Inhibition of the contraction induced by noradrenaline in portal vein isolated from rat.
Portal vein was extracted from adult male rats (between 200 and 250 g of body weight), which had been stunned by a blow in the head. Portal vein was installed into an isolated organ bath (Letica) containing a physiological saline solution (Hamilton et al., Br. J. Pharmacol., 1986, 103-111) at 37° C. and a gas bubbler (5% CO2 and 95% O2). Contractions were induced by noradrenaline (3 μM) and were reverted after thoroughly washing with physiological saline solution. Portal vein contraction was measured with an isometric force transducer and with an initial tension of 1 g. After two contractions with noradrenaline, performed in order to measure the tissue's basal response, the tested compounds were incubated for 30 minutes and a new contraction was induced.

For `CC1(C)C(=O)c2ccc(Br)cc2[C@@H](n2ccccc2=O)[C@@H]1O` (relative stereo) [Compound 14, Trans 6-bromo-4-(1,2-dihydro-2-oxo-1-pyridyl)-2,2-dimethyl-3-hydroxy-1,2,3,4-tetrahydronaphthalen-1-one], the “Pressure Decrease” value [1] was 23 mm Hg, the EC50 [2] was greater than 10 µM and the IC50 [3] was 28 µM.

`CC1(C)C(=O)c2ccc(Br)cc2[C@@H](N2CCCC2=O)[C@@H]1O` (relative stereo) [Compound 18, Trans 6-bromo-2,2-dimethyl-3-hydroxy-4-(2-oxo-1-pyrrolidinyl)-1,2,3,4-tetrahydronaphthalen-1-one] was tested, and the “Pressure Decrease” value [1] was 39 mm Hg, the EC50 [2] was 78 µM and the IC50 [3] was greater than 10 µM.

With `CC1(C)C(=O)c2ccc(Br)cc2[C@@H](N2Cc3ccccc3C2=O)[C@@H]1O` (relative stereo) [Compound 22, Trans 6-bromo-4-(2,3-dihydro-1-oxo-1H-isoindol-2-yl)-2,2-dimethyl-3-hydroxy-1,2,3,4-tetrahydronaphthalen-1-one] the “Pressure Decrease” value [1] was 24 mm Hg, the EC50 [2] was greater than 50 µM and the IC50 [3] was 3.1 µM.

For `CC1(C)C(=O)c2ccc(C#N)cc2[C@@H](n2ccccc2=O)[C@@H]1O` (relative stereo) [Compound 23, Trans 4(1,2-dihydro-2-oxo-1-pyridyl)-2,2-dimethyl-3-hydroxy-1-oxo-1,2,3,4-tetrahydronaphthalen-6-carbonitrile], the “Pressure Decrease” value [1] was 84 mm Hg, the EC50 [2] was 99 µM and the IC50 [3] was 14 µM.

In the case of `CC(=O)O[C@H]1[C@H](n2ccccc2=O)c2cc(C#N)ccc2C(=O)C1(C)C` (relative stereo) [Compound 24, Trans 3-acetoxy-4-(1,2-dihydro-2-oxo-1-pyridyl)-2,2-dimethyl-1-oxo-1,2,3,4-tetrahydronaphthalen-6-carbonitrile], the “Pressure Decrease” value [1] is reported as 64.7 mm Hg, the EC50 [2] is reported as 2.2 µM and the IC50 [3] is reported as 23 µM.

For `CC(=O)N(C)c1ccc2c(c1)[C@@H](n1ccccc1=O)[C@H](O)C(C)(C)C2=O` (relative stereo) [Compound 36, Trans 4-(1,2-dihydro-2-oxo-1-pyridyl)-2,2-dimethyl-3-hydroxy-6-N-methylacetamide-1,2,3,4-tetrahydronaphthalen-1-one], the “Pressure Decrease” value [1] was 94 mm Hg, the EC50 [2] was greater than 100 µM and the IC50 [3] was 33 µM.

For `CC1(C)C(=O)c2ccc(C(F)(F)F)cc2[C@@H](n2ccccc2=O)[C@@H]1O` (relative stereo) [Compound 41, Trans 4-(1,2-dihydro-2-oxo-1-pyridyl)-2,2-dimethyl-3-hydroxy-1,2,3,4-tetrahydro-6-trifluoromethylnaphthalen-1-one], the “Pressure Decrease” value [1] was 52.6 mm Hg and the EC50 [2] was 1 µM.

`CC1(C)C(=O)c2cc(Cl)c(Cl)cc2[C@@H](n2ccccc2=O)[C@@H]1O` (relative stereo) [Compound 57, Trans 6,7-dichloro-4-(1,2-dihydro-2-oxo-1-pyridyl)-2,2-dimethyl-3-hydroxy-1,2,3,4-tetrahydronaphthalen-1-one] was tested, and the “Pressure Decrease” value [1] was 52 mm Hg, the EC50 [2] was 0.5 µM and the IC50 [3] was 1.5 µM.

With `CC1(C)C(=O)c2ccc(S(=O)(=O)c3ccccc3)cc2[C@@H](n2ccccc2=O)[C@@H]1O` (relative stereo) [Compound 60, Trans 4-(1,2-dihydro-2-oxo-1-pyridyl)-2,2-dimethyl-3-hydroxy-6-phenylsulphonyl-1,2,3,4-tetrahydronaphthalen-1-one] the “Pressure Decrease” value [1] was 32.5 mm Hg and the IC50 [3] was 0.3 µM.

`COc1ccc2c(c1)C(n1ccccc1=O)=CC(C)(C)C2=O` [Compound 6, 1,2-dihydro-4-(1,2-dihydro-2-oxo-1-pyridyl)-2,2-dimethyl-6-methoxynaphthalen-1-one] was tested, and the “Pressure Decrease” value [1] was 42.5 mm Hg and the IC50 [3] was 21 µM.

`CC1(C)C=C(n2ccccc2=O)c2cc(Cl)ccc2C1=O` [Compound 11, 6-chloro-1,2-dihydro-4-(1,2-dihydro-2-oxo-1-pyridyl)-2,2-dimethylnaphthalen-1-one] was tested, and the “Pressure Decrease” value [1] was 53 mm Hg, the EC50 [2] was 1.1 µM and the IC50 [3] was 1.4 µM.

For `CC1(C)C=C(N2CCCC2=O)c2cc(Cl)ccc2C1=O` [Compound 13, 6-chloro-1,2-dihydro-2,2-dimethyl-4-(2-oxo-1-pyrrolidinyl)naphthalen-1-one], the “Pressure Decrease” value [1] was 32 mm Hg, the EC50 [2] was greater than 10 µM and the IC50 [3] was greater than 10 µM.

For `CC1(C)C=C(n2ccccc2=O)c2cc(Br)ccc2C1=O` [Compound 16, 6-bromo-1,2-dihydro-4-(1,2-dihydro-2-oxo-1-pyridyl)-2,2-dimethylnaphthalen-1-one], the EC50 [2] was 0.2 µM and the IC50 [3] was 0.5 µM.

`CC1(C)C=C(N2CCCC2=O)c2cc(Br)ccc2C1=O` [Compound 21, 6-bromo-1,2-dihydro-2,2-dimethyl-4-(2-oxo-1-pyrrolidinyl)naphthalen-1-one] was tested, and the “Pressure Decrease” value [1] was 60.5 mm Hg, the EC50 [2] was 19 µM and the IC50 [3] was 10 µM.

For `CC1(C)C=C(n2ccccc2=O)c2cc(C#N)ccc2C1=O` [Compound 26, 1,2-dihydro-4-(1,2-dihydro-2-oxo-1-pyridyl)-2,2-dimethyl-1-oxonaphthalen-6-carbonitrile], the “Pressure Decrease” value [1] was 96.5 mm Hg, the EC50 [2] was 0.1 µM and the IC50 [3] was 0.6 µM.

With `CC1(C)C=C(N2CCCC2=O)c2cc(C#N)ccc2C1=O` [Compound 30] the “Pressure Decrease” value [1] was 103 mm Hg, the EC50 [2] was 0.9 µM and the IC50 [3] was 0.8 µM.

For `CC(=O)N(C)c1ccc2c(c1)C(n1ccccc1=O)=CC(C)(C)C2=O` [Compound 38, 1,2-dihydro-4-(1,2-dihydro-2-oxo-1-pyridyl)-2,2-dimethyl-6N-methylacetamidonaphthalen-1-one], the “Pressure Decrease” value [1] was 49.3 mm Hg, the EC50 [2] was 1.5 µM and the IC50 [3] was 4.3 µM.

In the case of `CC(=O)N(C)c1ccc2c(c1)C(N1CCCC1=O)=CC(C)(C)C2=O` [Compound 40, 1,2-dihydro-2,2-dimethyl-6-N-methylacetamido-4-(2-oxo-1-pyrrolidinyl)naphthalen-1-one], the “Pressure Decrease” value [1] is reported as 23 mm Hg, the EC50 [2] is reported as 2.5 µM and the IC50 [3] is reported as 17 µM.

For `CC1(C)C=C(n2ccccc2=O)c2cc(C(F)(F)F)ccc2C1=O` [Compound 42, 1,2-dihydro-4-(1,2-dihydro-2-oxo-1-pyridyl)-2,2-dimethyl-6-trifluoromethylnaphthalen-1-one], the “Pressure Decrease” value [1] was 103 mm Hg, the EC50 [2] was 31 µM and the IC50 [3] was 0.35 µM.

With `CC1(C)C=C(n2ccccc2=O)c2cc(C#C[Si](C)(C)C)ccc2C1=O` [Compound 49, 1,2-dihydro-4-(1,2-dihydro-2-oxo-1-pyridyl)-2,2-dimethyl-6-trimethylsilylethynylnaphthalen-1-one] the “Pressure Decrease” value [1] was 91.5 mm Hg, the EC50 [2] was 4.8 µM and the IC50 [3] was 0.46 µM.

With `C#Cc1ccc2c(c1)C(n1ccccc1=O)=CC(C)(C)C2=O` [Compound 50, 1,2dihydro-4-(1,2-dihydro-2-oxo-1-pyridyl)-2,2-dimethyl-6-ethynylnaphthalen-1-one] the “Pressure Decrease” value [1] was 112 mm Hg, the EC50 [2] was 0.25 µM and the IC50 [3] was 0.98 µM.

For `CC1(C)C=C(n2ccccc2=O)c2ccc(Br)cc2C1=O` [Compound 52, 7-bromo-1,2-dihydro-4-(1,2-dihydro-2-oxo-1-pyridyl)-2,2-dimethylnaphthalen-1-one], the “Pressure Decrease” value [1] was 37 mm Hg and the IC50 [3] was 2.7 µM.

For `CC1(C)C=C(n2ccccc2=O)c2ccc(C#N)cc2C1=O` [Compound 55, 1,2-dihydro-4-(1,2dihydro-2-oxo-1-pyridyl)-2,2-dimethyl-1-oxonaphthalen-7carbonitrile], the “Pressure Decrease” value [1] was 41 mm Hg and the IC50 [3] was greater than 10 µM.

With `CC1(C)C=C(n2ccccc2=O)c2cc(Cl)c(Cl)cc2C1=O` [Compound 58] the “Pressure Decrease” value [1] was 58 mm Hg, the EC50 [2] was 0.05 µM and the IC50 [3] was 0.7 µM.
